According to ChEMBL document CHEMBL3860037, “Design, synthesis and biological characterization of a new class of osteogenic (1H)-quinolone derivatives” (Eur J Med Chem, 2016):
Values belong to the compound of their own block, whether it stands above or below them. The source made the active and inactive calls. No cut-off for these calls is given here.

Columns and labels:
[1] = target: Protein smoothened (Mus musculus) (UniProt P56726); experiment: Activity at Smo in mouse C3H10T1/2 cells assessed as induction of cell differentiation into osteoblast at 10 uM incubated for 6 days by alkaline phosphatase assay relative to GSA-10; format: cell-based; settings: C3H 10T1/2
Protein smoothened (Mus musculus), sequence (P56726 whole entry): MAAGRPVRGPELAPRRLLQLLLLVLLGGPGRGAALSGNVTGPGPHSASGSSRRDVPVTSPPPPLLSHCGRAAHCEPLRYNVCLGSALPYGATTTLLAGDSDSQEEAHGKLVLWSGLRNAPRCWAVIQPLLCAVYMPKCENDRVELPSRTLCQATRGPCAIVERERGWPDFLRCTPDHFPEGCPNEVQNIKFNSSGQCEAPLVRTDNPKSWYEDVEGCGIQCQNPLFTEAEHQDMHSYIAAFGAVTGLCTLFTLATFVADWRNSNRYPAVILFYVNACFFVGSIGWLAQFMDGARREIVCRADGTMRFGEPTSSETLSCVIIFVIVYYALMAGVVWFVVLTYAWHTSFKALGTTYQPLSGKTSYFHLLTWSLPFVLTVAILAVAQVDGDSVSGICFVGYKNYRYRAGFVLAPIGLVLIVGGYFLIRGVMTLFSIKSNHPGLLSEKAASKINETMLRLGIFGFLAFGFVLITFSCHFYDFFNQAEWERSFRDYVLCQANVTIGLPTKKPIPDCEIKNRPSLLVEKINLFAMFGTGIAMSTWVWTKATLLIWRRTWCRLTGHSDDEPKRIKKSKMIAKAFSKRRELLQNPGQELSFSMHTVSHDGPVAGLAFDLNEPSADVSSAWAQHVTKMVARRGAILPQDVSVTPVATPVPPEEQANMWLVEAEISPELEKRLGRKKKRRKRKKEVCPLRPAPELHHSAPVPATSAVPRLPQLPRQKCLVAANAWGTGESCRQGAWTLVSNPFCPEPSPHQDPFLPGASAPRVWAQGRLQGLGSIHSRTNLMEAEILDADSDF

[2] = target: Protein smoothened (Mus musculus) (UniProt P56726); experiment: Activity at Smo in mouse C3H10T1/2 cells assessed as induction of cell differentiation into osteoblast at 1 uM in presence of adenylate cyclase activator forskolin incubated for 6 days by alkaline phosphatase assay; format: cell-based; settings: C3H 10T1/2
[3] = target: Protein smoothened (Mus musculus) (UniProt P56726); experiment: Activity at Smo in mouse C3H10T1/2 cells assessed as induction of cell differentiation into osteoblast at 1 uM in presence of phosphodiesterase inhibitor IBMX incubated for 6 days by alkaline phosphatase assay; format: cell-based; settings: C3H 10T1/2
[4] = target: Protein smoothened (Mus musculus) (UniProt P56726); experiment: Activity at Smo in mouse C3H10T1/2 cells assessed as induction of cell differentiation into osteoblast incubated for 6 days by alkaline phosphatase assay; format: cell-based; settings: C3H 10T1/2
[5] = target: Protein smoothened (Mus musculus) (UniProt P56726); experiment: Agonist activity at Smo in mouse C3H10T1/2 cells assessed as effect on Gli1 expression at 10 uM after 48 hrs by RT-PCR method relative to vehicle-treated control; format: cell-based; settings: C3H 10T1/2
[6] = target: Protein smoothened (Mus musculus) (UniProt P56726); experiment: Agonist activity at Smo in mouse C3H10T1/2 cells assessed as effect on Gli2 expression at 10 uM after 48 hrs by RT-PCR method relative to vehicle-treated control; format: cell-based; settings: C3H 10T1/2
[7] = target: Protein smoothened (Mus musculus) (UniProt P56726); experiment: Agonist activity at Smo in mouse C3H10T1/2 cells assessed as effect on Gli3 expression at 10 uM after 48 hrs by RT-PCR method relative to vehicle-treated control; format: cell-based; settings: C3H 10T1/2
[8] = target: Protein smoothened (Mus musculus) (UniProt P56726); experiment: Agonist activity at Smo in mouse C3H10T1/2 cells assessed as effect on Ptc1 expression at 10 uM after 48 hrs by RT-PCR method relative to vehicle-treated control; format: cell-based; settings: C3H 10T1/2
[9] = target: Protein smoothened (Mus musculus) (UniProt P56726); experiment: Agonist activity at Smo in mouse C3H10T1/2 cells assessed as effect on Smo expression at 10 uM after 48 hrs by RT-PCR method relative to vehicle-treated control; format: cell-based; settings: C3H 10T1/2
[10] = target: Protein smoothened (Mus musculus) (UniProt P56726); experiment: Antagonist activity at Smo in mouse NIH/3T3 cells transfected with Gli-dependent firefly luciferase reporter assessed as inhibition of SAG-induced maximal stimulation of Gli transcription factor at 1 uM incubated for 40 hrs relative to control; format: cell-based
[11] = target: T1, Coelenterazine h 2-monooxygenase (Renilla reniformis) (UniProt P27652); experiment: Induction of Renilla reniformis luciferase activity at 10 uM relative to control
T1 sequence (whole entry): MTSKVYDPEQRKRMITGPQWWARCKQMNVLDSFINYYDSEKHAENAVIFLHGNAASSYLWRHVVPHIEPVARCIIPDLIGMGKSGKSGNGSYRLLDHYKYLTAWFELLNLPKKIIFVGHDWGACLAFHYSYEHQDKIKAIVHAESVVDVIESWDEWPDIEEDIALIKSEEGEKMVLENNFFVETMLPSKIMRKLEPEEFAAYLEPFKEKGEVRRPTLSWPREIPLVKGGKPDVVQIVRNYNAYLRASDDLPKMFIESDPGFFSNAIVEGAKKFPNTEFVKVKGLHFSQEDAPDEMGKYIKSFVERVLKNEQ

[12] = target: Protein smoothened (Mus musculus) (UniProt P56726); experiment: Potency index, ratio of GSA-10 EC50 to compound EC50 for activity at Smo in mouse C3H10T1/2 cells assessed as induction of cell differentiation into osteoblast; format: cell-based; settings: C3H 10T1/2
[13] = target: Protein smoothened (Mus musculus) (UniProt P56726); experiment: Activity at Smo in mouse C3H10T1/2 cells assessed as induction of cell differentiation into osteoblast at 0.3 uM in presence of adenylate cyclase activator forskolin incubated for 6 days by alkaline phosphatase assay; format: cell-based; settings: C3H 10T1/2
[14] = target: Protein smoothened (Mus musculus) (UniProt P56726); experiment: Activity at Smo in mouse C3H10T1/2 cells assessed as induction of cell differentiation into osteoblast at 0.3 uM in presence of phosphodiesterase inhibitor IBMX incubated for 6 days by alkaline phosphatase assay; format: cell-based; settings: C3H 10T1/2

SMILES: CCCCCCn1c(=O)c(C(=O)Nc2ccc(C(=O)OCCC)c(Cl)c2)c(O)c2ccccc21
max activation [1]: 11%

SMILES: CCCCn1c(=O)c(C(=O)Nc2ccc(C(=O)OCCC)cc2)c(O)c2ccccc21
max activation [1]: 135%

SMILES: CCCCCn1c(=O)c(C(=O)Nc2ccc([N+](=O)[O-])cc2O)c(O)c2ccccc21
max activation [1]: 3%

SMILES: CCCCCCn1c(=O)c(C(=O)Nc2ccc(C(=O)OCCCC)cc2)c(O)c2ccccc21
max activation [1]: 88%

SMILES: CCCCCCn1c(=O)c(C(=O)Nc2ccc(OCC)cc2)c(O)c2ccccc21
max activation [1]: 1%

SMILES: CCCCCCn1c(=O)c(C(=O)Nc2cccc(C(=O)OCCC)c2C(F)(F)F)c(O)c2ccccc21
max activation [1]: 1.4%

SMILES: CCCCCn1c(=O)c(C(=O)Nc2ccc(C(=O)OCCCC)cc2)c(O)c2ccccc21
max activation [1]: 123%

SMILES: CCCCCCn1c(=O)c(C(=O)Nc2ccc(C(=O)OCCC)cc2)c(O)c2ccccc21
Activity [2]: Active
Activity [3]: Active
Activity [4]: Dose-dependent effect
fold change (FC) [5]: 0.05
fold change (FC) [6]: 1.35
fold change (FC) [7]: 0.85
fold change (FC) [8]: 0.33
fold change (FC) [9]: 0.8
inhibition [10]: 31%
Activity [11]: < 20%

SMILES: CCCCCCn1c(=O)c(C(=O)Nc2ccc(C(=O)NCCCC)cc2)c(O)c2ccccc21
max activation [1]: 92%

max activation [1]: 105%
SMILES: CCCOC(=O)c1ccc(NC(=O)c2c(O)c3ccccc3n(CCC)c2=O)cc1

max activation [1]: 85%
SMILES: CCCOC(=O)c1ccc(NC(=O)c2c(O)c3cc(C)ccc3n(CCC)c2=O)cc1

SMILES: CCCCCCn1c(=O)c(C(=O)Nc2cccc(C(=O)OCC)c2)c(O)c2ccccc21
max activation [1]: 1.7%

Ratio EC50 [12]: 3
Activity [13]: Active
Activity [14]: Active
Activity [4]: Dose-dependent effect
max activation [1]: 138%
fold change (FC) [5]: 0.04
fold change (FC) [6]: 1.49
fold change (FC) [7]: 0.86
fold change (FC) [8]: 0.27
fold change (FC) [9]: 0.81
inhibition [10]: 54%
Activity [11]: < 20%
SMILES: CCCOC(=O)c1ccc(NC(=O)c2c(O)c3cc(OC)c(OC)cc3n(CCC)c2=O)cc1

SMILES: CCCCCn1c(=O)c(C(=O)Nc2ccc([N+](=O)[O-])cc2)c(O)c2ccccc21
max activation [1]: 5%

max activation [1]: 38%
SMILES: CCCOC(=O)c1ccc(NC(=O)c2c(O)c3cccc4c3n(c2=O)CCC4)cc1

SMILES: CCCCCCn1c(=O)c(C(=O)Nc2ccc(C(=O)NCCC)cc2)c(O)c2ccccc21
max activation [1]: 1.6%

SMILES: CCCCCCn1c(=O)c(C(=O)Nc2nc(CC(=O)OCC)cs2)c(O)c2ccccc21
max activation [1]: 3%

SMILES: CCOC(=O)c1ccc(NC(=O)c2c(O)c3ccccc3n(Cc3ccccc3)c2=O)cc1
max activation [1]: 4%

SMILES: CCCCCn1c(=O)c(C(=O)Nc2ccc(C(=O)OCCC)cc2)c(O)c2ccccc21
max activation [1]: 138%
